Reference: paper PMC6132687, “Stem cells are the most sensitive screening tool to identify toxicity of GATA4-targeted novel small-molecule compounds” (Archives of Toxicology, 2018)

How the values were obtained:
[1] = tested on: GATA4–NKX2-5 transcriptional synergy; assay: Luciferase reporter assay of GATA4–NKX2-5 synergistic gene activation in COS-1 cells; assay type: cell-based, African green monkey; settings: 24 h treatment, normalized to DMSO
Protocol: COS-1 cells were used to investigate the compound effects on GATA4–NKX2-5 synergistic gene activation using a luciferase reporter assay (Kinnunen et al. [2015]). Toxicity profiling was carried out in eight cell types: the H9c2 myoblast cell line, NRVCs, CFs, mESCs, MEFs, mESC derivatives from day 5 embryoid bodies (D5EBs), hiPSCs and hiPSC-CMs. All cell cultures were maintained at 37 °C in a humidified atmosphere of 5% carbon dioxide (CO2) and the regular growth medium was used for compound exposures. Cell culture methods and cardiomyocyte differentiation from human pluripotent stem cells are described in Supplementary Information.
The empty expression plasmid MT2 (pMT2) and mouse Gata4 expressing pMT2-Gata4 plasmids were gifts from D. B. Wilson (Department of Pediatrics, St. Louis Children’s Hospital) (Arceci et al. [1993]). The luciferase reporter plasmid pGL3-3xHA containing three Nkx2-5 high-affinity binding sites has been described previously (Kinnunen et al. [2015]). To create mouse Nkx2-5 expressing pMT2-Nkx2-5, the cDNA was cloned from pFLCI-Nkx2-5 (clone D330001C20, Imagenes), which was a kind gift from R. Kerkelä (University of Oulu, Finland), with primers containing the EcoRI restriction site (forward: 5′-[…]-3′ and reverse 5′-[…]-3′) and ligated to pMT2 EcoRI site. The correct clone was identified by digestion with specific restriction enzymes and the sequence was verified by DNA sequencing (DNA Sequencing and Genomics Laboratory, Institute of Biotechnology, University of Helsinki, Finland).
COS-1 cells grown on 96-well plates were transfected with the luciferase reporter plasmid pGL3-3xHA (100 ng/well) and equal amounts of expression vectors pMT2-Gata4 and pMT2-Nkx2-5 (total of 50 ng/well) using Fugene 6 (Promega) at a reagent:DNA ratio of 3:1. Cells transfected with either pMT2, pMT2-Gata4 or pMT2-Nkx2-5 were used to confirm synergistic transactivation of the reporter gene in all experiments. After 6 h of transfection, the cells were treated with compounds or vehicle (0.1% dimethyl sulfoxide, DMSO) and the luminescence was measured 24 h later using Neolite Reporter Gene Assay System (PerkinElmer, Turku, Finland) according to manufacturer’s instructions and Victor2 plate reader (PerkinElmer, Turku, Finland). Each compound was tested in three technical replicates in at least two independent experiments.
A luciferase reporter assay with an artificial promoter containing three high-affinity binding sites for NKX2-5 was used to evaluate the effects of the compounds on GATA4–NKX2-5 transcriptional synergy (Kinnunen et al. [2015]). We have previously shown that while GATA4 alone induces only minimal activation of this promoter, it strongly potentiates NKX2-5-mediated transactivation (Kinnunen et al. [2015]; Välimäki et al. [2017]).

[2] = tested on: caspase-3/7 activity in hiPSCs; assay: High-content analysis of caspase-3/7 activation in hiPSCs; assay type: cell-based, human; settings: 4-h exposure
Protocol: To study caspase activation, the cells were exposed to the test compounds for 4 h and then incubated with 3–5 µM CellEvent™ Caspase-3/7 Green Detection Reagent solution in PBS with 5% FBS for 50 min and stained with Hoechst for 10 min at 37 °C. Cells were fixed with 4% PFA and scanned with CellInsight using the 10× objective, or alternatively, the staining solution was replaced with fresh 5% FBS in PBS followed by live cell imaging with CellInsight. Hoechst fluorescence was used to identify the cells and define the nuclear area. The intensity of green fluorescence within the nucleus was quantified as a measure of caspase 3/7 activity.

hiPSCs [3] = assay: High-content analysis of cell viability (MitoTracker) in hiPSCs; assay type: cell-based, human; settings: 24 h
Protocol: To study mitochondrial function using high-content analysis, the cells were plated and treated as in proliferation studies, except that MitoTracker Orange CMTMRos solution (400 nM) was added to the cells for the last 30 min at 37 °C. The accumulation of the MitoTracker probe used is dependent upon mitochondrial membrane potential allowing selective staining of active mitochondria. Following fixation and permeabilization, hiPSC-CMs were in addition stained with anti-α-actinin (Alexa Fluor 488) and DAPI. Cells were identified and hiPSC-CMs discriminated from non-myocytes as described above. MitoTracker intensity corresponding to active mitochondria was analysed in the perinuclear area defined by a 3-pixel ring or a 5-pixel ring around the nucleus in hiPSCs and hiPSC-CMs, respectively. The fluorescence intensity threshold was set manually in each experiment based on the assumption that 2% of control hiPSC-CMs and 5% of control hiPSCs were MitoTracker negative.

hiPSCs [4] = assay: High-content analysis of proliferation (Ki67, BrdU, DNA) in hiPSCs; assay type: cell-based, human; settings: 24 h
Protocol: (§1) For proliferation studies, the cells were exposed to the test compounds for 24 h and 10 µM BrdU was added to the culture medium for the last 1 h (hiPSCs) or 24 h (hiPSC-CMs) before fixation with 4% paraformaldehyde (PFA) for 15 min at room temperature (rt). The cells were then permeabilized with 0.1% Triton X-100 for 10 min and DNA was hydrolysed with 2 M hydrochloric acid for 30 min at rt followed by neutralization with 0.1 M sodium borate (pH 8.5) for 30 min. Non-specific binding sites were blocked with 4% FBS in phosphate-buffered saline (PBS) for 45 min at rt, whereafter the cells were incubated with anti-Ki67 (1:250) and anti-BrdU (1:250) antibodies for 60 min at rt. Cells were then washed 3 × 5 min with PBS and incubated with Alexa Fluor-conjugated secondary antibodies (1:200) and DAPI (5 µg/ml) for 45 min at rt. In hiPSC-CM cultures, staining with primary antibody against α-actinin (at 1:600) was additionally used to identify myocytes. The plates were imaged and analysed with CellInsight CX5 High Content Screening Platform (Thermo Scientific) using a 10× objective (Olympus UPlanFL N 10×/0.3). For quantification, the cells were first identified based on DAPI fluorescence, which defined the nuclear area for quantifications. In hiPSC-CM cultures, non-myocytes were excluded based on absence of α-actinin staining and nuclear area. The thresholds for α-actinin fluorescence intensity and nuclear area were set manually in each experiment to allow optimal exclusion of non-myocytes. In hiPSC-CMs cultures, the data were collected only from α-actinin positive cells. The thresholds for Ki67+ and BrdU+ cells were also set manually in each experiment as described previously (Mioulane et al. [2012]) to adjust for slight variation in staining intensity.

[5] = tested on: stretch-induced cardiomyocyte hypertrophy; design: method as in Välimäki et al. [2017]; settings: ref Välimäki et al. [2017]; cited from earlier work
hiPSC-CMs = assay: High-content analysis of proliferation (Ki67, BrdU, DNA) in hiPSC-CMs; assay type: cell-based, human; settings: 24 h; for average intensity of nuclear Ki67 staining / increase in the percentage of Ki67+ cells compared to DMSO: 30 µM
Protocol: as §1

SMILES: CCN(CC)c1ccc(NC(=O)c2c(-c3ccccc3)noc2C)cc1 [3i-1000]
- effect on GATA4- and NKX2-5-induced gene activation (luciferase reporter activity) [1]: inhibitory effect
- increase in cells positive for the fluorescent caspase reporter ([2]; vs DMSO): 3.2 fold
- average MitoTracker intensity in the perinuclear area (hiPSCs [3]; 10 µM): reduced substantially
- increase in the percentage of MitoTracker negative cells as compared to DMSO (hiPSCs [3]; 10 µM): 5.7 fold
- reduction of hiPSC cell numbers (hiPSCs [3]; 10 µM): 98%
- proportion of BrdU-positive cells (hiPSCs [4]; 1 µM): not at 1 µM
- proportion of Ki67 positive cells (hiPSCs [4]; 1 µM): not at 1 µM
- proportion of BrdU-positive cells (hiPSCs [4]; 10 µM): decreased
- proportion of Ki67 positive cells (hiPSCs [4]; 10 µM): decreased
- average intensity of nuclear BrdU staining (hiPSCs [4]): decreased average intensity
- average intensity of nuclear Ki67 staining (hiPSCs [4]): decreased average intensity
- cell numbers (hiPSCs [4]): significantly reduced
- decrease in the average total intensity of DNA staining (hiPSCs [4]): 66%
- decrease in cells with high total DNA staining intensity (G2 phase) (hiPSCs [4]; P = 0.062): 77%
- stretch-induced cardiomyocyte hypertrophy [5]: attenuates
- decrease in BrdU+ hiPSC-CMs as compared to DMSO (hiPSC-CMs; P = 0.233): 43%
- average intensity of nuclear Ki67 staining (hiPSC-CMs; hiPSC-CMs): substantial increases
- increase in the percentage of Ki67+ cells compared to DMSO (hiPSC-CMs; hiPSC-CMs): 1.7 fold
- average intensity of nuclear BrdU staining (hiPSC-CMs; hiPSC-CMs): tendency for 3i-1000 to induce a decrease
- average total intensity of DNA staining (hiPSC-CMs; hiPSC-CMs): neither 3i-1000 nor 3i-1047 caused significant changes
- percentage of cells with high total intensity of DNA staining (hiPSC-CMs; hiPSC-CMs): neither 3i-1000 nor 3i-1047 caused significant changes

SMILES: CCN(CC)c1ccc(NC(=O)c2c(C)noc2-c2cc(C)on2)cc1 [3i-1047]
- effect on GATA4- and NKX2-5-induced gene activation (luciferase reporter activity) [1]: only a weak effect
- effect on caspase-3/7 activity [2]: no effect
- effect on MitoTracker staining (hiPSCs [3]): did not affect MitoTracker staining
- corresponding average staining intensities (Ki67, BrdU, DNA) (hiPSCs [4]; 1 or 10 µM): no effect
- percentage of BrdU+ cells (hiPSCs [4]; 1 or 10 µM): no effect
- percentage of Ki67+ cells (hiPSCs [4]; 1 or 10 µM): no effect
- percentage of high DNA cells (hiPSCs [4]; 1 or 10 µM): no effect
- average intensity of nuclear Ki67 staining (hiPSC-CMs; hiPSC-CMs): substantial increases
- increase in the percentage of Ki67+ cells compared to DMSO (hiPSC-CMs; hiPSC-CMs): 1.5 fold
- average intensity of nuclear BrdU staining (hiPSC-CMs; hiPSC-CMs): no effect
- average total intensity of DNA staining (hiPSC-CMs; hiPSC-CMs): neither 3i-1000 nor 3i-1047 caused significant changes
- percentage of BrdU+ cells (hiPSC-CMs; hiPSC-CMs): no effect
- percentage of cells with high total intensity of DNA staining (hiPSC-CMs; hiPSC-CMs): neither 3i-1000 nor 3i-1047 caused significant changes

SMILES: CCC(=O)N(Cc1ccc(N(CC)CC)cc1)c1c(-c2ccccc2)noc1C [3i-1120]
- effect on GATA4- and NKX2-5-induced gene activation (luciferase reporter activity) [1]: inhibitory effect

SMILES: CCN(CC)c1ccc(NC(=O)c2cc(C)oc2-c2ccccc2)cc1 [3i-1148]
- effect on GATA4- and NKX2-5-induced gene activation (luciferase reporter activity) [1]: inhibitory effect

SMILES: COc1ccc(-c2cc(N)nn2C(=O)c2c(-c3ccccc3)noc2C)cc1 [3i-1229]
- effect on GATA4- and NKX2-5-induced gene activation (luciferase reporter activity) [1]: only a weak effect
